According to ChEMBL document CHEMBL1201862, “PubChem BioAssay data set” (2004):
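Assay format: 96-well plates, 48-hour exposure. Abbreviation: GI50, concentration required for 50% inhibition of growth.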 Activity calls are given as the source filed them. Rule as the data show it: active = GI50 up to about 1.1 µM and inactive = higher.

How the values were obtained:
Experiment in all cases: NCI tumour cell line growth inhibition, 48 h
HL-60 = system: HL-60
DMS-273 = system: DMS-273
NCI/ADR-RES = system: NCI/ADR-RES
MCF7 = system: MCF7
DLD-1 = system: DLD-1
SNB-78 = system: SNB-78
XF498 = system: XF498
OVCAR-8 = system: OVCAR-8
HCC 2998 = system: HCC 2998
HOP-92 = system: HOP-92
A549 = system: A549
M19-MEL = system: M19-MEL
DMS-114 = system: DMS-114

Measured: GI50

Cc1c2cnccc2c(C)c2c1c1ccccc1n2CCCCCCCl
inactive: HL-60 10.1 µM | DMS-273 > 39.8 µM | NCI/ADR-RES > 46.3 µM | MCF7 > 50 µM | DLD-1 > 50 µM | SNB-78 32.9 µM | XF498 33 µM | OVCAR-8 26 µM | HCC 2998 > 46.8 µM | HOP-92 > 50 µM | A549 > 48.2 µM | M19-MEL 40 µM | DMS-114 > 40.3 µM
